From ChEMBL document CHEMBL6153170 (J Med Chem, 2025)
pIC50: −log10 of the molar value. Active and inactive are the calls of the source. No cut-off for these calls is given here.

Experiments:
[1] = Toxicity in C57 mouse assessed as myelosuppression by measuring MPV level at 20 mg/kg/day, IG administered for 14 days by heat map analysis; format: organism-based; conditions: in vivo, po, 336 h, time 14 day
Histone deacetylase 7 = biological target: T1, Histone deacetylase 7 (Homo sapiens, UniProt Q8WUI4); assay: Inhibition of N-terminal GST-tagged recombinant human HDAC7 (501 to 952 residues) extracted from baculovirus expression system using Ac-Leu-Gly-Lys (Tfa)-AMC as substrate preincubated for 5 mins followed by substrate addition and measured after 30 mins by fluorescence microplate reader analysis
T1 sequence (Q8WUI4 whole entry): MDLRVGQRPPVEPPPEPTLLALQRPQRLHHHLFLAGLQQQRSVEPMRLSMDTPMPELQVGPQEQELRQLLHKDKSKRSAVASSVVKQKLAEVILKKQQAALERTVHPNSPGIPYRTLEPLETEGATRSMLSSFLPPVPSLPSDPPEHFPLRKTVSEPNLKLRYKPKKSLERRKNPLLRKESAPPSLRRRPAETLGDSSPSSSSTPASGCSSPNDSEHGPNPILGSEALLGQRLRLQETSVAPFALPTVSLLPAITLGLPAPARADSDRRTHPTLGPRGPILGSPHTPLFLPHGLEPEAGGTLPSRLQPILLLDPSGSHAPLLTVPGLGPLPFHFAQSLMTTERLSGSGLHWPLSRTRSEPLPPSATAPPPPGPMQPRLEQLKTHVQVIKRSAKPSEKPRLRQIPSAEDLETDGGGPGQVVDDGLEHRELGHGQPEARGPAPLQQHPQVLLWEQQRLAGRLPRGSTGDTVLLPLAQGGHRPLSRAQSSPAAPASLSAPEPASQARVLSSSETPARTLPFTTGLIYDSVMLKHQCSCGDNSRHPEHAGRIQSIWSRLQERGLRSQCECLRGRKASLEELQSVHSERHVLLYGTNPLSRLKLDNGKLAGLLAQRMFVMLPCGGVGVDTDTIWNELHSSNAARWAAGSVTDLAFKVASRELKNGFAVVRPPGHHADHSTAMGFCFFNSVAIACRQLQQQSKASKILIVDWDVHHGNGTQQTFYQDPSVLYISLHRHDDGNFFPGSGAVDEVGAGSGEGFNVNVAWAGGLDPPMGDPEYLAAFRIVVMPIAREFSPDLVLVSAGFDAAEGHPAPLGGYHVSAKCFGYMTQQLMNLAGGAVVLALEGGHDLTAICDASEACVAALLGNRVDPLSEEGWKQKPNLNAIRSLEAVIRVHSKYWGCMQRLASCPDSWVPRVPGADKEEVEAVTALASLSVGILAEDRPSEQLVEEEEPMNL

[2] = Cmax in male Sprague-Dawley rat at 10 mg/kg, po measured after 48 hrs by triple quadrupole mass spectrometric analysis; format: ADME, organism-based; conditions: in vivo
[3] = biological target: Histone deacetylase 3 (Homo sapiens) (UniProt O15379); assay: Inhibition of HDAC3 in human Jurkat T cells assessed as increase in acetylated H3 level incubated for 12 hrs by Western blot analysis; format: cell-based
[4] = MRT (0 to infinity) in male Sprague-Dawley rat at 10 mg/kg, po measured after 48 hrs by triple quadrupole mass spectrometric analysis; format: ADME, organism-based; conditions: in vivo
[5] = Toxicity in C57 mouse assessed as change in AST level at 20 mg/kg/day, IG administered for 14 days by heat map analysis; format: organism-based; conditions: in vivo, po, 336 h, time 14 day
B16-F10 [6] = assay: Antitumor activity against mouse B16-F10 cells implanted in C57BL/6 mouse model assessed as reduction in tumor weight at 20 mg/kg/day, ip administered for 14 days; format: functional, organism-based; conditions: time 14.0 day
[7] = Toxicity in C57 mouse assessed as change in ALT level at 20 mg/kg/day, IG administered for 14 days by heat map analysis; format: organism-based; conditions: in vivo, po, 336 h, time 14 day
B16-F10 [8] = assay: Effect on acetylated histone H3 protein level in mouse B16-F10 cells at 0.1 to 2 uM incubated for 12 hrs by Western blot analysis; format: functional, cell-based; conditions: dose 0.1-2 µM
[9] = Half-life in male Sprague-Dawley rat at 2 mg/kg, iv measured after 48 hrs by triple quadrupole mass spectrometric analysis; format: ADME, organism-based; conditions: in vivo
Jurkat = assay: Effect on acetylated histone H3 protein level in human Jurkat T cells at 0.1 to 2 uM incubated for 12 hrs by Western blot analysis; format: functional, cell-based; conditions: dose 0.1-2 µM
B16-F10 [10] = assay: cells; conditions: Mus musculus, B16-F10, 48 h
MCF7 = assay: cells; conditions: Homo sapiens, MCF7, 48 h
B16-F10 [11] = assay: Antitumor activity against mouse B16-F10 cells implanted in C57BL/6 mouse model assessed as tumor growth inhibition at 20 mg/kg/day, ip administered for 14 days relative to control; format: functional; conditions: B16-F10, 336 h, time 14 day, read-out: TGI
[12] = Toxicity in C57 mouse assessed as change in ALB level at 20 mg/kg/day, IG administered for 14 days by heat map analysis; format: organism-based; conditions: in vivo, po, 336 h, time 14 day
B16-F10 [13] = assay: Effect on Histone H3 protein level in mouse B16-F10 cells at 0.1 to 2 uM incubated for 12 hrs by Western blot analysis; format: functional, cell-based; conditions: dose 0.1-2 µM
B16-F10 [14] = assay: Downregulation of p-STAT3 expression level in mouse B16-F10 cells at 0.1 to 2 uM incubated for 24 hrs by Western blot analysis; format: functional, cell-based; conditions: dose 0.1-2 µM
[15] = biological target: T2, Histone deacetylase 3 (Mus musculus) (UniProt O88895); assay: Inhibition of HDAC3 in mouse B16-F10 cells assessed as increase in acetylated H3 level incubated for 12 hrs by Western blot analysis; format: cell-based
T2 sequence (whole entry): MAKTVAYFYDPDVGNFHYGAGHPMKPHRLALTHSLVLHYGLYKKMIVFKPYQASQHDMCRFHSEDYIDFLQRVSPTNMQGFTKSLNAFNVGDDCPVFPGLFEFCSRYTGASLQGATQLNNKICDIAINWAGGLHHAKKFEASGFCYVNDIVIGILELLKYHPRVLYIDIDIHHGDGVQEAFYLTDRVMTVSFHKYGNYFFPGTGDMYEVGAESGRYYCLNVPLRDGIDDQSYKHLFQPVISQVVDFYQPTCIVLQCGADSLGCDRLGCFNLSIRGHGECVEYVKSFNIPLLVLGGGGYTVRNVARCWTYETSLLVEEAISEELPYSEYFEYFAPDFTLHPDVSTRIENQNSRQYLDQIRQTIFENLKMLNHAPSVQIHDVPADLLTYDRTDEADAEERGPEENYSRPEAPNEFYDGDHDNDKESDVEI

B16-F10 [16] = assay: Antitumor activity against mouse B16-F10 cells implanted in C57BL/6 mouse model assessed as tumor growth inhibition at 20 mg/kg/day, ip co-administered with ACY-1215 for 14 days relative to control; format: functional; conditions: B16-F10, 336 h, time 14 day, read-out: TGI
[17] = Toxicity in C57 mouse assessed as myelosuppression by measuring hematocrit level at 20 mg/kg/day, IG administered for 14 days by heat map analysis; format: organism-based; conditions: in vivo, po, 336 h, time 14 day
B16-F10 [18] = assay: Antitumor immunity activity against mouse B16-F10 cells implanted in C57BL/6 mouse model assessed as CD3+ CD4+ T cell percentage in tumor at 20 mg/kg/day, ip co-administered with ACY-1215 for 14 days by flow cytometric analysis (reference value: 0.095 %); format: functional; conditions: time 14 day

Chain of Histone deacetylase 3 (Homo sapiens) (O15379 whole entry): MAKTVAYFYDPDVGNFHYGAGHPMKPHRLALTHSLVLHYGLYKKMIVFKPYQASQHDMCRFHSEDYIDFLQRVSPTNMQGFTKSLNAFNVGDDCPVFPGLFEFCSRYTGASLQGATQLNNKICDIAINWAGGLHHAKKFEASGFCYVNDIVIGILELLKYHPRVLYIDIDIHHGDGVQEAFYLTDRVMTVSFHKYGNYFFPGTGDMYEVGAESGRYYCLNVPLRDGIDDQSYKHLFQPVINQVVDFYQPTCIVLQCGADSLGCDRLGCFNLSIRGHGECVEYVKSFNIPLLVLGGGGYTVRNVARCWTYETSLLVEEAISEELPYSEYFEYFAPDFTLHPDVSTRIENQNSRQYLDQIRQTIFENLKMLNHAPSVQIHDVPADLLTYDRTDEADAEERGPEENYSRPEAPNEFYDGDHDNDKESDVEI

pIC50 (Histone deacetylase 7): < 4.00
Cmax [2]: 194 ng/mL
inhibition [3]: inactive
MRT inf [4]: 19.3 h
half-life [9]: 6.9 h
pIC50 (B16-F10 [10]): 5.09
pIC50 (MCF7): < 5.00
inhibition [15]: inactive
SMILES: COc1nc(-c2cccc(-c3ccccc3)c2C)ccc1CNCCCCCCC(=O)NO
Activity [1]: Non-toxic
Activity [5]: Non-toxic
Activity (B16-F10 [6]): Active
Activity [7]: Non-toxic
Activity (B16-F10 [8]): Active; Negligible Effect Observed
Activity (Jurkat): Active; Negligible Effect Observed
inhibition in vivo at 20 mg/kg/day (B16-F10 [11]): 65.5%
Activity [12]: Non-toxic
Activity (B16-F10 [13]): inactive
Activity (B16-F10 [14]): Active
inhibition in vivo at 20 mg/kg/day (B16-F10 [16]): 53.9%
Activity [17]: Non-toxic
Activity (B16-F10 [18]): 7.72%
